# According to patent US9375004B2 (Bayer Intellectual Property GmbH, priority 2010, dated 2016):
# Experiment: logP by HPLC on reversed-phase column (EEC Directive 79/831 Annex V.A8)
# Settings: HPLC on a reversed-phase column (C 18), EEC Directive 79/831 Annex V.A8
row,logP,SMILES
1,3.29,Cn1nc(C(F)F)c(C(=O)Nc2ccc(Oc3ccccc3)cc2)c1F [compound 268]
2,4.46,CC(C)O/N=C/c1ccc(-c2cccc(NC(=O)c3c(C(F)F)nn(C)c3F)c2)cc1 [compound 245]
3,4.66,CC(C)O/N=C/c1ccc(-c2cccc(NC(=O)c3c(C(F)F)nn(C)c3Cl)c2)cc1 [compound 246]
4,5.28,C/C(=N\OC(C)(C)C)c1ccc(-c2cccc(NC(=O)c3c(C(F)F)nn(C)c3F)c2)cc1 [compound 247]
5,4.21,Cn1nc(C(F)F)c(C(=O)Nc2ccc(C3CCCCC3)cc2)c1F [compound 262]
6,5.51,C/C(=N\OC(C)(C)C)c1ccc(-c2cccc(NC(=O)c3c(C(F)F)nn(C)c3Cl)c2)cc1 [compound 248]
7,3.65,Cn1nc(C(F)F)c(C(=O)Nc2cccc(Sc3ccccc3)c2)c1F [compound 257]
8,4.51,Cn1nc(C(F)F)c(C(=O)Nc2ccc(-c3cc(Cl)cc(Cl)c3)cc2)c1F [compound 266]
9,4.98,Cn1nc(C(F)F)c(C(=O)Nc2cccc(Sc3ccc(C(C)(C)C)cc3)c2)c1F [compound 258]
10,3.76,Cn1nc(C(F)F)c(C(=O)Nc2ccc(OC(F)(F)F)cc2Br)c1F [compound 260]
11,3.35,Cn1nc(C(F)F)c(C(=O)Nc2cccc(Oc3ccccc3)c2)c1F [compound 250]
12,3.55,Cn1nc(C(F)F)c(C(=O)Nc2cccc(OCc3ccccc3)c2)c1Cl [compound 253]
13,3.85,Cn1nc(C(F)F)c(C(=O)Nc2cccc(Sc3ccccc3)c2)c1Cl [compound 256]
14,5.17,Cn1nc(C(F)F)c(C(=O)Nc2cccc(Sc3ccc(C(C)(C)C)cc3)c2)c1Cl [compound 259]

# Same assay, conditions: HPLC on reversed-phase column (C 18), EEC Directive 79/831 Annex V.A8
row,SMILES,logP
1,Cn1nc(C(F)F)c(C(=O)Nc2ccccc2OC(F)(F)C(F)F)c1F [compound 29],3.08
2,Cn1nc(C(F)F)c(C(=O)Nc2ccccc2Sc2ccc(Cl)cc2)c1Cl [compound 165],4.63
3,Cc1cc(C)c(-c2cccc(NC(=O)c3c(C(F)F)nn(C)c3F)c2)c(C)c1 [compound 211],4.34
4,CC(C)c1ccccc1NC(=O)c1c(C(F)F)nn(C)c1Cl [compound 2],3.02
5,CC(C)c1ccc(-c2cccc(NC(=O)c3c(C(F)F)nn(C)c3Cl)c2)cc1 [compound 216],4.68
6,Cn1nc(C(F)F)c(C(=O)Nc2cccc3c2OC(F)(F)O3)c1Cl [compound 63],3.00
7,Cn1nc(C(F)F)c(C(=O)Nc2cccc(C3CC3)c2)c1F [compound 191],2.90
8,Cn1nc(C(F)F)c(C(=O)Nc2ccc3c(c2)OC(F)(F)O3)c1F [compound 197],2.94
9,CO/N=C(\C)c1ccc(-c2cccc(NC(=O)c3c(C(F)F)nn(C)c3F)c2)cc1 [compound 233],3.89
10,Cn1nc(C(F)F)c(C(=O)Nc2ccccc2SC(F)(F)F)c1F [compound 36],3.37
11,CCCOc1cccc(NC(=O)c2c(C(F)F)nn(C)c2F)c1 [compound 175],3.04
12,Cn1nc(C(F)F)c(C(=O)Nc2ccccc2C2CC2)c1F [compound 45],2.96
13,"Cn1nc(C(F)F)c(C(=S)Nc2ccccc2C2CC2C2CC2)c1Cl (single isomer, unassigned) [Example 50]",3.81
14,Cn1nc(C(F)F)c(C(=O)Nc2cccc(-c3cc(F)cc(F)c3)c2)c1Cl [compound 210],3.83
15,C/C(=N\OC(C)(C)C)c1ccc(-c2ccccc2NC(=O)c2c(C(F)F)nn(C)c2Cl)cc1 [compound 157],5.54
16,Cn1nc(C(F)F)c(C(=O)Nc2ccccc2OCc2ccccc2)c1F [compound 158],3.67
17,Cn1nc(C(F)F)c(C(=O)Nc2cccc(-c3ccc(Cl)cc3Cl)c2)c1Cl [compound 230],4.39
18,CC(C)Oc1ccc(-c2cccc(NC(=O)c3c(C(F)F)nn(C)c3F)c2)cc1 [compound 223],3.96
19,CC(C)COc1ccc(-c2ccccc2NC(=O)c2c(C(F)F)nn(C)c2Cl)cc1 [compound 135],4.96
20,Cc1ccccc1-c1ccccc1NC(=O)c1c(C(F)F)nn(C)c1Cl [compound 76],4.14
21,Cn1nc(C(F)F)c(C(=O)Nc2cccc(-c3ccc(C(F)(F)F)cc3)c2)c1F [compound 225],3.99
22,Cc1ccccc1-c1cccc(NC(=O)c2c(C(F)F)nn(C)c2Cl)c1 [compound 202],3.83

row,SMILES,logP
1,Cn1nc(C(F)F)c(C(=O)Nc2cccc3c2OCCO3)c1Cl [compound 58],2.70
2,Cn1nc(C(F)F)c(C(=O)Nc2ccccc2SC(F)(F)C(F)(F)C(F)(F)F)c1F [compound 42],4.25
3,Cn1nc(C(F)F)c(C(=O)Nc2cccc3c2CCCC3)c1Cl [compound 57],3.31
4,Cn1nc(C(F)F)c(C(=O)Nc2cccc(-c3ccc(C(F)(F)F)cc3)c2)c1Cl [compound 226],4.19
5,Cn1nc(C(F)F)c(C(=O)Nc2ccccc2SCC2CC2(Cl)Cl)c1F (stereo not shown) [compound 41],3.27
6,CC(C)c1ccccc1NC(=O)c1c(C(F)F)nn(C)c1F [compound 1],2.82
7,CCC(C)Oc1cc(NC(=O)c2c(C(F)F)nn(C)c2Cl)ccc1C (stereo not shown) [compound 178],4.06
8,Cn1nc(C(F)F)c(C(=O)Nc2ccccc2OCC(C)(C)C)c1F [compound 27],4.08
9,CC(C)COc1ccc(-c2cccc(NC(=O)c3c(C(F)F)nn(C)c3Cl)c2)cc1 [compound 236],4.83
10,CO/N=C(\C)c1ccc(-c2ccccc2NC(=O)c2c(C(F)F)nn(C)c2Cl)cc1 [compound 130],4.11
11,Cn1nc(C(F)F)c(C(=O)Nc2cccc(-c3cccc(OC(F)(F)F)c3)c2)c1F [compound 242],4.11
12,Cn1nc(C(F)F)c(C(=O)Nc2cc(Cl)ccc2SCC(F)(F)F)c1F [compound 40],3.92
13,Cc1cc(C)cc(-c2cccc(NC(=O)c3c(C(F)F)nn(C)c3F)c2)c1 [compound 205],4.11
14,CC(C)Oc1cccc(-c2cccc(NC(=O)c3c(C(F)F)nn(C)c3Cl)c2)c1 [compound 222],4.21
15,Cn1nc(C(F)F)c(C(=O)Nc2ccccc2OCc2ccccc2)c1Cl [compound 159],3.99
16,CO/N=C(\C)c1ccc(-c2cccc(NC(=O)c3c(C(F)F)nn(C)c3Cl)c2)cc1 [compound 234],4.11
17,Cn1nc(C(F)F)c(C(=O)Nc2ccccc2C(C)(C)C)c1Cl [compound 4],3.21
18,Cn1nc(C(F)F)c(C(=O)Nc2cc3c(cc2Br)OC(F)(F)O3)c1F [compound 196],3.58
19,Cn1nc(C(F)F)c(C(=O)Nc2ccc3c(c2)OC(F)(F)C(F)(F)O3)c1Cl [compound 200],3.76
20,Cn1nc(C(F)F)c(C(=O)Nc2cccc(-c3cc(F)cc(F)c3)c2)c1F [compound 209],3.62
21,"Cn1nc(C(F)F)c(C(=S)Nc2ccccc2C2CC2C2CC2)c1Cl (single isomer, unassigned) [Example 49]",3.79

# Other lines, results leading:
row,logP,SMILES
1,5.17,C/C(=N\OC(C)(C)C)c1ccc(-c2ccccc2NC(=O)c2c(C(F)F)nn(C)c2F)cc1 [compound 156]
2,3.31,Cn1nc(C(F)F)c(C(=O)Nc2ccccc2-c2cc(F)cc(F)c2)c1F [compound 91]
3,4.98,Cn1nc(C(F)F)c(C(=O)Nc2ccccc2-c2ccc([Si](C)(C)C)cc2)c1F [compound 134]
4,4.44,CC(C)c1ccc(-c2ccccc2NC(=O)c2c(C(F)F)nn(C)c2F)cc1 [compound 96]
5,3.99,Cn1nc(C(F)F)c(C(=O)Nc2cccc(-c3cccc(Cl)c3Cl)c2)c1F [compound 227]
6,3.92,Cn1nc(C(F)F)c(C(=O)Nc2ccccc2-c2ccc(OC(F)(F)F)cc2)c1F [compound 145]
7,4.51,Cc1cc(C)cc(-c2ccccc2NC(=O)c2c(C(F)F)nn(C)c2Cl)c1 [compound 82]
8,3.96,CC(C)Oc1cccc(-c2ccccc2NC(=O)c2c(C(F)F)nn(C)c2F)c1 [compound 111]
9,3.76,Cn1nc(C(F)F)c(C(=O)Nc2ccccc2-c2cccc(Cl)c2Cl)c1F [compound 121]
10,4.61,CC(C)COc1ccc(-c2ccccc2NC(=O)c2c(C(F)F)nn(C)c2F)cc1 [compound 131]
11,4.56,Cn1nc(C(F)F)c(C(=O)Nc2ccccc2OCc2cc(Cl)ccc2Cl)c1F [compound 162]
12,4.19,Cn1nc(C(F)F)c(C(=O)Nc2ccccc2-c2ccc(OC(F)(F)F)cc2)c1Cl [compound 144]
13,3.78,CO/N=C(\C)c1ccc(-c2ccccc2NC(=O)c2c(C(F)F)nn(C)c2F)cc1 [compound 129]
14,4.06,Cn1nc(C(F)F)c(C(=O)Nc2ccccc2-c2cccc(Cl)c2Cl)c1Cl [compound 122]
15,5.25,Cn1nc(C(F)F)c(C(=O)Nc2ccccc2-c2cccc([Si](C)(C)C)c2)c1Cl [compound 132]
16,3.94,Cn1nc(C(F)F)c(C(=O)Nc2ccccc2-c2ccc(C(F)(F)F)cc2)c1Cl [compound 120]
17,3.89,Cn1nc(C(F)F)c(C(=O)Nc2cccc(-c3ccc(F)c(Cl)c3)c2)c1F [compound 217]
18,4.11,Cn1nc(C(F)F)c(C(=O)Nc2cccc(-c3ccc(F)c(Cl)c3)c2)c1Cl [compound 218]
19,3.89,Cn1nc(C(F)F)c(C(=O)Nc2ccccc2-c2ccc(Cl)cc2Cl)c1F [compound 123]
20,4.11,Cc1cc(C)cc(-c2ccccc2NC(=O)c2c(C(F)F)nn(C)c2F)c1 [compound 81]
21,3.83,Cn1nc(C(F)F)c(C(=O)Nc2cccc(-c3ccc(Cl)cc3)c2)c1F [compound 207]
22,4.21,Cn1nc(C(F)F)c(C(=O)Nc2cccc(-c3ccc(Cl)cc3Cl)c2)c1F [compound 229]
23,4.01,CC(C)Oc1ccc(-c2ccccc2NC(=O)c2c(C(F)F)nn(C)c2F)cc1 [compound 113]
24,4.34,Cn1nc(C(F)F)c(C(=O)Nc2ccccc2Sc2ccc(Cl)cc2)c1F [compound 164]
25,3.60,Cn1nc(C(F)F)c(C(=O)Nc2ccccc2-c2ccc(F)c(Cl)c2)c1F [compound 102]
